Data: article PMC6838110 (Nature Communications, 2019)

Key:
FaDu ATM KO cells = assay: Cell proliferation (GI50), Live/Dead assay; type: cell-based; details: Homo sapiens, read-out: GI50 (near 50% of maximal inhibition of cell proliferation)
Source text: by Live/Dead assay in A) UWB1.289 and UWB1.289 complemented with wild-type BRCA1 (UWB1.289 + BRCA1), DLD1 and DLD1 with the BRCA2 gene knocked out (DLD1 BRCA2 KO), and B) FaDu and A549 cells with the ATM gene knocked out (ATM KO) compared with their WT counterpart. Graphs represent percentage viable cells ± SD following 7 days’ treatment relative to DMSO vehicle-treated controls from one representative experiment of at least three independent experiments. Tables describe […]
and A549 ATM KO cells compared with their WT counterparts following 7 days’ treatment.
Mean pGI50 (–log [GI50]) ± SEM, geometric mean GI50, number of experimental repeats (n) and 95% confidence interval are described. C) Colony formation assay was performed on FaDu and A549 ATM KO and WT cells treated with increasing concentrations of olaparib. Graphs represent percentage surviving fraction of colonies ± SD following 10– 14 days’ treatment relative to DMSO vehicle-treated control from one representative experiment of three independent experiments. […] Mean pIC50
± SEM, geometric mean IC50, number of experimental repeats (n) and 95% confidence […]
8–14 days or with increasing concentrations of olaparib. Cell colonies were washed with […]
Mean surviving colonies were calculated from three technical replicates. […]
before survival fraction was calculated. […]
and quantified using the Acumen ® Cellista (TTP Labtech). […]

HBCx-17 TNBC PDX = assay: PDX efficacy study; type: in vivo, mice
Procedure: Immunocompromised SCID (C.B-17/IcrHan®Hsd-Prkdc^scid) or Hsd:Athymic Nude-Foxn1^nu female mice (Envigo) were used for tumour implantation. […] When dosed twice daily, the time between the morning and evening doses was 8 h. Targeted irradiation of 2 Gy was delivered over 2 min daily over the first 5 days of treatment. Liposomal doxorubicin (Doxoves) was diluted in physiological saline and intravenously dosed at 2.5 or 5 mg kg^−1 once per week. Olaparib was formulated in 10% DMSO/30% Kleptose and orally dosed at 100 mg kg^−1 once daily. […] Statistical significance was evaluated using a one-tailed t-test. All in vivo studies complied with all relevant ethical regulations for animal testing and research, followed AstraZeneca’s global bioethics policy and received ethical approval from the AstraZeneca ethical committee. HBCx-17 PDX study was carried out at XenTech, France in accordance with French regulatory legislation concerning the protection of laboratory animals. CTG-703, CTG-0828 and CTG-0149 PDX studies were carried out at Champions Oncology, Inc., USA in accordance to the guidelines of the Institutional Animal Care and Use Committee (IACUC) of Champions Oncology and the USA regulatory legislation. CDX and OV2022 PDX studies were conducted in the UK in accordance with UK Home Office legislation, the Animal Scientific Procedures Act 1986 and the Home Office project licences 70/8839, 70/8894 and P0EC1FFDF. […]
SCID mice were surgically implanted subcutaneously with tumour fragments from donor mice. Tumours were measured (length x width) by bilateral Vernier calliper measurements and tumour volume calculated using Mousetrap software. Mice were randomized into […]
treatment groups when mean tumour volume reached ~0.2 cm 3.

A549 cells = assay: Colony formation assay with ionizing radiation; type: cell-based, human
Procedure: (§1) page 32: […] Plates were then washed 2x with PBS, incubated with 20 µL of antibody solution containing […] incubated at RT for 2 hours. Plates were washed 3x with PBS before imaging on the CV7000 high-content imaging platform (Yokogawa). Following image acquisition, images were exported to the ColumbusTM image data storage and analysis system (Perkin Elmer). Optimized image algorithms were used to evaluate phenotypic response s using nuclear staining with Hoechst (cell cycle, micronuclei, nuclear fragmentation ), as well as to quantify the response of DNA damage response markers (foci numbers and total signal […] SDS-PAGE and Western blotting of samples Protein lysates were generated by scraping cells in radioimmunoprecipitation assay […] and protease and phosphatase inhibitor tablets (Roche) following compound treatments at indicated time points. Protein concentration was determined using the BCA protein assay kit (ThermoFisher). Proteins were separated by SDS -PAGE on NuPAGE® 4-12% […] membranes using the iBlot ® dry blotting system (ThermoFisher). Membranes were […] and incubated with primary antibody overnight at 4°C. Membranes were then washed with TBS-T and incubated with HRP-conjugated anti-rabbit or anti-mouse antibodies for 1 hour at RT. Proteins were detected by incubating membranes with SuperSignalTM Dura extended-duration substrate (ThermoFisher) and visualiz ed using the G:BOX ChemiGenius imaging system (Syngene). Band intensities were quantified using Syngene Genetools software. For analysis o f in vivo samples, a two-sided t-test was performed on logged data assuming unequal variance. A list of all antibodies used in this study can be found in Supplementary Table 5. Colony formation assay Cells were plated at low density into six-well plates in 3 mL medium (500 cells for A549, NCI-H1299 and FaDu WT, 4000 cells for FaDu ATM […]) and incubated overnight. Cell plating numbers were adjusted for higher IR doses to compensate for cell kill. […] Cell colonies were washed with […] acetic acid for >10 minutes. Excess stain was removed by washing with water. Surviving colonies (>50 cells) were counted using the GelCountTM colony counter (Oxford Optronix). Mean surviving colonies were calculated from three technical replicates. […] fraction. […] 33

NCI-H1299 cells = assay: Colony formation assay with ionizing radiation; type: cell-based, human; details: for DEF37 Mean / DEF37 n1 / DEF37 n2: NCI-H1299
Procedure: as §1

For `Cc1cc2ncnn2cc1Nc1ncc2c(n1)n(C1CCOCC1)c(=O)n2C` [AZD7648], the GI50 (FaDu ATM KO cells) was about 600 nM, the TGI (HBCx-17 TNBC PDX; AZD7648 75 mg kg−1 bid single agent (olaparib study)) was 65% and the TGI (HBCx-17 TNBC PDX; AZD7648 single agent (doxorubicin study)) was 25%. The “DEF37 Mean” value (A549 cells; AZD7648 0.025 μM + IR) was 1.2, the “DEF37 n1” value (A549 cells; AZD7648 0.025 μM + IR) was 1.3 and the “DEF37 n2” value (A549 cells; AZD7648 0.025 μM + IR) was 1.2. The “DEF37 Mean” value (A549 cells; AZD7648 0.1 μM + IR) was 1.7, the “DEF37 n1” value (A549 cells; AZD7648 0.1 μM + IR) was 1.4 and the “DEF37 n2” value (A549 cells; AZD7648 0.1 μM + IR) was 1.9. The “Mean DEF37” value (A549 cells; AZD7648 1 μM + IR (Fig. 1e)) was 5.1, the “DEF37 Mean” value (A549 cells; AZD7648 1.21 μM + IR) was 5.1 and the “DEF37 n1” value (A549 cells; AZD7648 1.21 μM + IR) was 3.2. The “DEF37 n2” value (A549 cells; AZD7648 1.21 μM + IR) was 7.0, the “Mean DEF37” value (NCI-H1299 cells; H1299, AZD7648 1 μM + IR (Fig. 1e)) was 7.4 and the “DEF37 Mean” value (NCI-H1299 cells; AZD7648 0.025 μM + IR) was 1.3. For the same molecule, the “DEF37 n1” value (NCI-H1299 cells; AZD7648 0.025 μM + IR) was 1.2, the “DEF37 n2” value (NCI-H1299 cells; AZD7648 0.025 μM + IR) was 1.3 and the “DEF37 Mean” value (NCI-H1299 cells; AZD7648 0.1 μM + IR) was 2.5. For the same molecule, the “DEF37 n1” value (NCI-H1299 cells; AZD7648 0.1 μM + IR) was 2.9, the “DEF37 Mean” value (NCI-H1299 cells; AZD7648 1.21 μM + IR) was 7.4 and the “DEF37 n1” value (NCI-H1299 cells; AZD7648 1.21 μM + IR) was 7.9. The “DEF37 n2” value (NCI-H1299 cells; AZD7648 1.21 μM + IR) was 7.0.
